Read-outs that look alike come from different tables or passages of the source.
Columns and labels:
[1] = biological target: T1, 5HT transporters [(h)SERT] (Homo sapiens, UniProt P31645); experiment: Inhibition of [3H]serotonin uptake into HEK293 cells stably expressing hSERT; type: cell-based
T1 construct: expressed in transfected cells; host or cells: HEK-293
Source text: (§1) Cell Lines and Culture: Human embryonic kidney (HEK-293) cells stably expressing human DAT, NET or SERT were maintained as previously described in Eshleman, A. J.; Carmolli, M.; Cumbay, M.; Martens, C. R.; Neve, K. A.; Janowsky, A., J. Pharmacol. Exp. Ther. 1999, 289, (2), 877-885. Use was made of several human cell lines that naturally or heterologously express specific, functional, human nAChR subtypes. Cells of the TE671/RD line naturally expresses muscle-type nAChR (a1β1γδ- or α1*-nAChR), and SH-SY5Y neuroblastoma cells naturally expresses autonomic α3β4*-nAChRs (containing α3, β4, probably α5, and sometimes β2 subunits). Different clones of SH-EP1 epithelial cell lines have been engineered to heterologously express either α4β2-nAChR, which are thought to be the most abundant, high affinity nicotine-binding nAChR in mammalian brain, or α4β4-nAChR, another possible brain nAChR subtype (SH-EP1-hα4β2 or α4β4 cells, respectively). These cells were maintained as low passage number (1-26 from our frozen stocks) cultures to ensure stable expression of native or heterologously-expressed nAChR as previously described (see Lukas, R. J.; Fryer, J. D.; Eaton, J. B.; L., G. C., Some methods for studies of nicotinic acetylcholine receptor pharmacology, in Nicotinic receptors and the Nervous System, Levine, E. D., Ed. CRC Press: Boca Raton, 2002; pp 3-27, incorporated herein by reference in its entirety). Cells were passaged once weekly by splitting just-confluent cultures 1/300 (TE671/RD), 1/5 (SH-SY5Y), or 1/20 (transfected SH-EP1) in serum-supplemented medium to maintain log-phase growth.
See, for example, Damaj, M. I.; Carroll, F. I.; Eaton, J. B.; Navarro, H. A.; Blough, B. E.; Mirza, S.; Lukas, R. J.; Martin, B. R., Mol. Pharmacol. 2004, 66, (3), 675-682 and Eshleman, A. J.; Carmolli, M.; Cumbay, M.; Martens, C. R.; Neve, K. A.; Janowsky, A., J. Pharmacol. Exp. Ther. 1999, 289, (2), 877-885, both incorporated by reference herein in their entireties.

α4β4-nAChR = biological target: T2, α4β4-nAChR (Homo sapiens, UniProt P30926+P43681); experiment: 86Rb+ efflux nAChR functional assay, SH-EP1-hα4β4 cells; type: cell-based; conditions: EC80-EC90 carbamylcholine, parentheses = S.E.M. as multiplication/division factor, read-out: nAChR inhibition IC50 α4β4
T2 construct: expressed in transfected cells; host or cells: SH-EP1 epithelial cells (SH-EP1-hα4β4)
Source text: as §1
After cells had adhered (generally overnight, but no sooner than 4 h later), the medium was removed and replaced with 250 μL per well of complete medium supplemented with ˜350,000 cpm of ^86Rb^+ (PerkinElmer Life and Analytical Sciences, Boston, Mass.) and counted at 40% efficiency using Cerenkov counting (TriCarb 1900 liquid scintillation analyzer[…]; PerkinElmer Life Sciences).
After at least 4 h and typically overnight, ^86Rb^+ efflux was measured using the “flip-plate” technique. See Lukas, R. J.; Fryer, J. D.; Eaton, J. B.; L., G. C., Some methods for studies of nicotinic acetylcholine receptor pharmacology, in Nicotinic receptors and the Nervous System, Levine, E. D., Ed. CRC Press: Boca Raton, 2002; pp 3-27, incorporated herein by reference in its entirety). Briefly, after aspiration of the bulk of ^86Rb^+ loading medium from each well of the “cell plate,” each well containing cells was rinsed 3× with 2 mL of fresh ^86Rb^+ efflux buffer (130 mM NaCl, 5.4 mM KCl, 2 mM CaCl2, 5 mM glucose, 50 mM HEPES, pH 7.4) to remove extracellular ^86Rb^+. Following removal of residual rinse buffer by aspiration, the flip-plate technique was used again to simultaneously introduce 1.5 mL of fresh efflux buffer containing drugs of choice at indicated final concentrations from a 24-well “efflux/drug plate” into the wells of the cell plate. After a 5 min incubation, the solution was “flipped” back into the efflux/drug plate, and any remaining buffer in the cell plate was removed by aspiration. Cells remaining in the cell plate were lysed and suspended by addition of 1.5 mL of 0.1 M NaOH, 0.1% sodium dodecyl sulfate to each well.
Similarly, the sum of ^86Rb^+ in cell plates and efflux/drug plates also determined the efficiency of ^86Rb^+ loading (the percentage of applied ^86Rb^+ actually loaded into cells).
Specific efflux was then taken as the difference in control samples between total and non-specific ^86Rb^+ efflux. Any intrinsic agonist activity of test drugs was ascertained using samples containing test drug only at different concentrations and was normalized, after subtraction of non-specific efflux, to specific efflux in test drug-free, control samples.

[2] = tested on: Male Institute of Cancer Research (ICR) mice; experiment: Locomotor activity, antagonism of nicotine effect; type: in vivo; conditions: for ED50: Mus musculus, pretreatment 15 min before nicotine 1.5 mg/kg s.c., read-out: AD50 Locomotion; for AD50 Locomotion: pretreatment 15 min before nicotine […] s.c.
Source text: (§2) Animals: Male Institute of Cancer Research (ICR) mice (weighing 20-25 g) obtained from Harlan (Indianapolis, Ind.) were used throughout the study. Animals were housed in an Association for Assessment and Accreditation of Laboratory Animal Care-approved facility, were placed in groups of six, and had free access to food and water. Studies were approved by the Institutional Animal Care and Use Committee of Virginia Commonwealth University.
Locomotor Activity: Mice were placed into individual Omnitech photocell activity cages (28×16.5 cm; Omnitech Electronics, Columbus, Ohio) 5 min after subcutaneous administration of either 0.9% saline or nicotine (1.5 mg/kg). Interruptions of the photocell beams (two banks of eight cells each) were then recorded for the next 10 min. Data were expressed as the number of photocell interruptions.

[3] = tested on: Male Institute of Cancer Research (ICR) mice; experiment: Hot-plate test, blockade of nicotine-induced antinociception; type: in vivo; conditions: pretreatment 15 min before nicotine 2.5 mg/kg s.c., tested 5 min after nicotine; for ED50: Mus musculus, read-out: AD50 Hot-plate
Source text: as §2
Hot-Plate Test: Mice were placed into a 10-cm wide glass cylinder on a hot plate (Thermojust Apparatus) maintained at 55° C. for assessment of pain responses mediated at supraspinal levels. To minimize tissue damage, a maximum exposure to the hot plate 40 s was imposed. Measures of control latencies (time until the animal jumped or licked its paws; typically 8-12 s) were done twice for stimuli applied at least 10 min apart for each mouse. Antinociceptive responses after test drug administrations were determined and calculated as the % MPE, where % MPE=[(test latency in s−control latency in s)/(40 s−control latency in s)×100]. Groups of 8 to 12 animals were used for each drug condition. […] The animals were then tested 5 min after administration of a subcutaneous dose of 2.5 mg/kg nicotine.

[4] = read-out: monoamine uptake inhibition IC50 [3H]5HT
[5] = HEK293-hSERT, mean ± standard error of three independent experiments, read-out: monoamine uptake inhibition IC50 [3H]5HT

T2 sequence (P43681 29-627 limits assumed): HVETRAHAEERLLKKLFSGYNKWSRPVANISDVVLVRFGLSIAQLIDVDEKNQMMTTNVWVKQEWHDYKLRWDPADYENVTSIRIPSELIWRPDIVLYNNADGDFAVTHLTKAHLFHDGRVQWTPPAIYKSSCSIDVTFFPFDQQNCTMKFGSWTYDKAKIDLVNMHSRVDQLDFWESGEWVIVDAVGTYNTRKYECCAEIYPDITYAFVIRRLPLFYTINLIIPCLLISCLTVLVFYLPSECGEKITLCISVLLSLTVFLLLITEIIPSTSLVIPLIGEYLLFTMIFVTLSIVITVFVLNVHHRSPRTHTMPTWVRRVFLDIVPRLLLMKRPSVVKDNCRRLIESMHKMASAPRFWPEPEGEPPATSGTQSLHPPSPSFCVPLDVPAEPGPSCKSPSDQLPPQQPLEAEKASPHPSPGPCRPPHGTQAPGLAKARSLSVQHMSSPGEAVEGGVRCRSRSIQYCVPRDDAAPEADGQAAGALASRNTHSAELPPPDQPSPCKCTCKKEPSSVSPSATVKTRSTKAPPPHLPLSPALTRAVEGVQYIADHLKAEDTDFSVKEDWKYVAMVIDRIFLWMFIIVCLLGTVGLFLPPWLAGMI
T2 sequence (P30926 22-498): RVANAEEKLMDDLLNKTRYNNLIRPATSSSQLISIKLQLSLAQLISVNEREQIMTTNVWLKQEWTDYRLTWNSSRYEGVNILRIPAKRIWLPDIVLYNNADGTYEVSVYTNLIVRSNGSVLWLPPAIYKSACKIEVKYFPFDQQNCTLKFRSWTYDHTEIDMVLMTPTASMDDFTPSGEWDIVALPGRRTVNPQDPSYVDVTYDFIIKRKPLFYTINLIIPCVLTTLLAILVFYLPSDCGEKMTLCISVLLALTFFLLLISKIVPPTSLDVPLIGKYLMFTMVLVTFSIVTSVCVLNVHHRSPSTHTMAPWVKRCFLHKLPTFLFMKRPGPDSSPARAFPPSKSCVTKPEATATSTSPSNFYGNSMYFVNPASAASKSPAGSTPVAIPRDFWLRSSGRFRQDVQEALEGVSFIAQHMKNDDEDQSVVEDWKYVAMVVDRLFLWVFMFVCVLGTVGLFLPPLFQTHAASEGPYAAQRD
T1 sequence (P31645 whole entry): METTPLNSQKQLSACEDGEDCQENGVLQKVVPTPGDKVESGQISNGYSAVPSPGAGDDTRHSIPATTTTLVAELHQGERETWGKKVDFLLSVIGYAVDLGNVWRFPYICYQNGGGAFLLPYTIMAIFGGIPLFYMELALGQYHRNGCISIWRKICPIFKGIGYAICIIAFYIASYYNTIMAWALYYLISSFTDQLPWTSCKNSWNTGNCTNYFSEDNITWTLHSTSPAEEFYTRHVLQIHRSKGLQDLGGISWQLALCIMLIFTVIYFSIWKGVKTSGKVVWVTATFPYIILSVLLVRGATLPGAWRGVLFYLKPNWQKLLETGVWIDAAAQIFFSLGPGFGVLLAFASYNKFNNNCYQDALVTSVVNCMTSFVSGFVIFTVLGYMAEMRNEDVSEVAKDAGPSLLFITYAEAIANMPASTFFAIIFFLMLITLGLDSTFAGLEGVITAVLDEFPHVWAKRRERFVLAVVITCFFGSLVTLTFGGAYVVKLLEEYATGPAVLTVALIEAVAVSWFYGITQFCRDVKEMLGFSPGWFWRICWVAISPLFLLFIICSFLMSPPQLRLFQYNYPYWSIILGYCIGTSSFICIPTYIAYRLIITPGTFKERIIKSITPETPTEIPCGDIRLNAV

Structure (SMILES)	IC50 [1] [µM]	IC50 (α4β4-nAChR) [µM]	ED50 [2] [mg/kg]	AD50 Locomotion [2]	ED50 [3] [mg/kg]	IC50 [1, 4] [µM]	AD50 Hot-plate [3]	IC50 [1, 5] [µM]
C[C@@H]1NC(C)(C)CO[C@@]1(O)c1cccc(Br)c1 [Compound 4d, (2S,3S)-2-(3-Bromophenyl)-3,5,5-trimethylmorpholin-2-ol]	> 10	30	2.6	2.6 mg/kg	3.7 to 8.6			
CC[C@@H]1NC(C)(C)CO[C@@]1(O)c1cccc(Cl)c1 [Compound 4s, (2S,3S)-2-(3-Chlorophenyl)-3-ethyl-5,5-dimethylmorpholin-2-ol]		16	10.3		3.7 to 8.6	2.5 ± 0.54		
CC1NC(C)(C)COC1(O)c1ccc(Cl)c(Cl)c1 (racemic) [Compound 4n, 2-(3,4-Dichlorophenyl)-3,5,5-trimethylmorpholin-2-ol]	0.36	14		IA (IA: AD50 > 15 mg/kg)			IA (IA: AD50 > 15 mg/kg)	
Cc1ccc([C@]2(O)OCC(C)(C)N[C@H]2C)cc1 [Compound 4j, (2S,3S)-3,5,5-Trimethyl-2-(4-methylphenyl)morpholin-2-ol]		62		IA (IA: AD50 > 15 mg/kg)			IA (IA: AD50 > 15 mg/kg)	> 10
Cc1cccc([C@]2(O)OCC(C)(C)N[C@H]2C)c1 [Compound 4e, (2S,3S)-2-(m-Tolyl)-3,5,5-trimethylmorpholin-2-ol]		64		IA (IA: AD50 > 15 mg/kg)				> 10
C[C@@H]1N(C)C(C)(C)CO[C@@]1(O)c1ccc(Cl)cc1 [Compound 4v, (2S,3S)-2-(4-Chlorophenyl)-3,4,5,5-tetramethylmorpholin-2-ol]		91		IA (IA: AD50 > 15 mg/kg)			IA (IA: AD50 > 15 mg/kg)	6.48 ± 1.28
C[C@@H]1N(C)C(C)(C)CO[C@@]1(O)c1cccc(Cl)c1 [Compound 4u, (2S,3S)-2-(3-Chlorophenyl)-3,4,5,5-tetramethylmorpholin-2-ol]		43		IA (IA: AD50 > 15 mg/kg)			IA (IA: AD50 > 15 mg/kg)	> 10
C[C@@H]1NC(C)(C)CO[C@@]1(O)c1ccc(F)cc1 [Compound 4h, (2S,3S)-2-(4-Fluorophenyl)-3,5,5-trimethylmorpholin-2-ol]		> 100		IA (IA: AD50 > 15 mg/kg)			IA (IA: AD50 > 15 mg/kg)	> 10
C[C@@H]1NC(C)(C)CO[C@@]1(O)c1cc(F)cc(F)c1 [Compound 4o, (2S,3S)-2-(3,5-Difluorophenyl)-3,5,5-trimethylmorpholin-2-ol]		62		IA (IA: AD50 > 15 mg/kg)			IA (IA: AD50 > 15 mg/kg)	> 10
C[C@@H]1NC(C)(C)CO[C@@]1(O)c1cccc([N+](=O)[O-])c1 [Compound 4g, (2S,3S)-2-(3-Nitrophenyl)-3,5,5-trimethylmorpholin-2-ol]		80		IA (IA: AD50 > 15 mg/kg)			IA (IA: AD50 > 15 mg/kg)	> 10
C[C@@H]1NC(C)(C)CO[C@@]1(O)c1ccc(F)c(F)c1 [Compound 4m, (2S,3S)-2-(3,4-Difluorophenyl)-3,5,5-trimethylmorpholin-2-ol]		> 100		IA (IA: AD50 > 15 mg/kg)			IA (IA: AD50 > 15 mg/kg)	> 10
C[C@@H]1NC(C)(C)CO[C@@]1(O)c1ccc(Cl)cc1 [Compound 4i, (2S,3S)-2-(4-Chlorophenyl)-3,5,5-trimethylmorpholin-2-ol]		33		IA (IA: AD50 > 15 mg/kg)			IA (IA: AD50 > 15 mg/kg)	4.6 ± 0.9
COc1cccc([C@]2(O)OCC(C)(C)N[C@H]2C)c1 [Compound 4f, (2S,3S)-2-(3-Methoxyphenyl)-3,5,5-trimethylmorpholin-2-ol]		> 100		IA (IA: AD50 > 15 mg/kg)			IA (IA: AD50 > 15 mg/kg)	> 10
C[C@@H]1NC(C)(C)CO[C@@]1(O)c1cccc2ccccc12 [Compound 4q, (2S,3S)-2-(Naphthalen-1-yl)-3,5,5-trimethylmorpholin-2-ol]		13		IA (IA: AD50 > 15 mg/kg)		1.56 ± 0.215	IA (IA: AD50 > 15 mg/kg)	
C[C@@H]1NC(C)(C)CO[C@@]1(O)c1ccc(-c2ccccc2)cc1 [Compound 4l, (2S,3S)-2-Biphenyl-4-yl-3,5,5-trimethylmorpholin-2-ol]	> 10	8.1		IA (IA: AD50 > 15 mg/kg)			IA (IA: AD50 > 15 mg/kg)	
COc1ccc([C@]2(O)OCC(C)(C)N[C@H]2C)cc1 [Compound 4k, (2S,3S)-2-(4-Methoxyphenyl)-3,5,5-trimethylmorpholin-2-ol]	> 10	72		IA (IA: AD50 > 15 mg/kg)			IA (IA: AD50 > 15 mg/kg)	
C[C@@H]1NC(C)(C)CO[C@@]1(O)c1cccc(F)c1 [Compound 4c, (2S,3S)-2-(3-Fluorophenyl)-3,5,5-trimethylmorpholin-2-ol]	> 10	> 100		IA (IA: AD50 > 15 mg/kg)				
CC1NC(C)(C)COC1(O)c1cc(Cl)cc(Cl)c1 (racemic) [Compound 4p, 2-(3,5-Dichlorophenyl)-3,5,5-trimethylmorpholin-2-ol]		18	1.9				IA (IA: AD50 > 15 mg/kg)	> 10
